Source: patent US6723702B2, “Use of relaxin treat diseases related to vasoconstriction” (RAS Medical, Inc., priority 2000, dated 2004)

Tests used:
[1] = Relaxin ELISA in serum (Example 5); type: in vivo, rat; conditions: day 10
Description: The pulmonary artery trunk, right and left extrapulmonary branches were removed en bloc, cleaned of surrounding tissue, and weighed. The left lung was and excised and the entire hilar artery dissected from parenchyma and weighed (Tozzi et al. (1994) Am. J. Respir. Crit. Care Med. 149:1316-1326). Segments were hydrolyzed, and total hydroxyproline and protein determined (Poiani et al. (1990) Circ. Res. 66:968-978). Approximately 3 cc of whole blood was centrifuged, serum aspirated, and sample frozen at −20° C. for determination of rRlx levels by ELISA assay.
Levels of relaxin in serum were measured in a quantitative sandwich immunoassay, as previously described (Unemori et al. (1996) J. Clin. Invest. 98:2739-2745).

[2] = tested on: ovariectomized or sham ovariectomized rats; test: Chronic infusion of rhRLX on renal function in ovariectomized or sham ovariectomized rats; type: in vivo, rat; conditions: day 5 of infusion 4 μg/hour; comparable in ovariectomized and sham ovariectomized rats
Description: The details of the surgical procedures have been previously described. See, e.g., Conrad (1984) Kidney Int. 26:24-29; and Danielson and Conrad (1995) J. Clin. Invest. 96:482-490. […] The bladder catheter, a silastic-covered stainless steel cannula, was sewn into the urinary bladder with a purse-string suture and exteriorized through the ventral abdominal wall. This catheter was then plugged allowing the animal to urinate through the urethra while in her home cage. In the ovariectomized and sham ovariectomized animals, the ovaries were first ligated and then excised, or briefly manipulated, respectively, via a small incision made in the lateral abdominal wall immediately after the insertion of vascular and bladder catheters. All surgeries were conducted using aseptic technique. At least a 7-day recovery period was allowed before experimentation.
Six female rats each were subjected either to ovariectomy or sham ovariectomy immediately after the implantation of vascular and bladder catheters. Seven days later, renal function and MAP were assessed before the insertion of osmotic minipumps containing rhRLX. On day 5 of the relaxin infusion (4 μg/hour), renal function and MAP were again determined.

[3] = tested on: infarct and peri-infarct areas of the left ventricle; test: Rat LCAL model: number of venules on H & E sections; type: in vivo
Protocol: Female Sprague Dawley rats, approximately 12-weeks of age were used. Rats were anesthetized by intraperitoneal (i.p.) injection of up to 1 ml/kg ketamine/medetomidine (6:4). Following exteriorization of the heart, the left coronary artery was ligated near its origin with a silk suture. In sham surgery control animals, the suture was placed superficially into the muscle adjacent to the coronary artery. Post-closure EKG's were monitored for S-T segment elevation in LCAL animals to confirm the outcome of ligation. Immediately following cardiac surgery, a primed mini-osmotic pump containing relaxin or vehicle (20 mM acetate, pH 5.0) was aseptically implanted into a subcutaneous (s.c.) pocket on the dorsal interscapular region. Vehicle or relaxin (0.1 mg/kg/day) was delivered as a continuous s.c. infusion for 7 or 21 days to either sham or LCAL animals. Animals were terminated on day 7 or 21, and the peri-infarct regions anterior to the scar in the left ventricle, or equivalent sites on sham surgery animals were harvested.
The number of venules, arterioles and capillaries in the infarct and peri-infarct areas of the left ventricle were quantified by counting individual vessels on H & E (hematoxylin and eosin) stained sections. Numbers of venules, arterioles and capillaries were determined by counting in the area of the infarct, and in the right and left junction areas between the infarcted free wall and viable myocardium. Quantitation of venules and arterioles were obtained as total number of vessels in the entire area in each of 3 H&E stained transverse sections of the heart, i.e. apical, basal and midway between apical and basal levels. Quantitation was performed by a histopathologist blinded to the treatment groups. Venules comprised the observed increases in numbers of collateral vessels post-infarction. All veins counted in high dry fields were summed to yield vessel number per level. Three levels (apical, basal, and middle) were summed for each animal to yield total number of veins. N=4-5 animals per treatment group. […]

human cardiac cells = test: Cellular proliferation by 3H-thymidine incorporation in cardiac cells; type: cell-based
Protocol: To determine if the effects of relaxin observed in the rat were also seen in human cells, total RNA from cardiac cells was extracted following treatment of cells with 1, 10, and 100 ng/ml relaxin for 24 hours. Human cardiac cells were cultured for 24 hours either without or with relaxin (1-100 ng/ml). Untreated cells were incubated for the same 24 hour period under hypoxic (2% O2) conditions. Using 150 ng of total RNA for human VEGF and bFGF transcripts and 10 ng of total RNA for GAPDH transcripts, primer/probe sets were used to generate RT-PCR products for human VEGF 165aa and 121aa isoforns and human bFGF. Data were analyzed using Sequence Detector v1.6.3 software (Applied Biosystems/PE). VEGF and bFGF expression levels are graphed relative to GAPDH transcript levels. Data are shown as means±SEM, where n=3 per treatment group; *p<0.05; Student-Newman-Keuls test. […] Absolute baseline levels of bFGF mRNA transcripts expressed by these cells were approximately 2-fold greater than those of either the VEGF121 or the VEGF165 isoforms. Total RNA from cells incubated under hypoxic conditions was analyzed as a positive control for the stimulation of VEGF isoforms. […] Relaxin had no effect on cellular proliferation, as assessed by ^3H-thymidine incorporation, on cellular morphology, or on desmin or vimentin staining patterns.

rhRLX: recombinant human relaxin, identical in amino acid sequence to the product of the human H2 gene; A chain of 24, B chain of 29 amino acids
rRlx serum levels ([1]; 1 mg-air (low rhRlx-air)): 2.9 ± 1.0 ng/mL | rRlx serum levels ([1]; 1 mg-hyp (low rhRlx-hyp)): 3.2 ± 0.4 ng/mL | rRlx serum levels ([1]; 5 mg-air (hi rhRlx-air)): 9.9 ± 2.8 ng/mL | rRlx serum levels ([1]; 5 mg-hyp (hi rhRlx-hyp)): 11.5 ± 2.5 ng/mL | effect on ERPF [2]: profound rise | effect on ERVR [2]: fall | effect on GFR [2]: profound rise | number of venules in the infarct region ([3]; day 7, 0.1 mg/kg/day): 163±8 | number of venules (vessel number) in the infarct region ([3]; day 21, 0.1 mg/kg/day): 209±13 | number of vessels in analogous area of the left ventricle ([3]; sham surgery): did not alter | cellular proliferation, 3H-thymidine incorporation (human cardiac cells): no effect
